How the values were obtained:
hCB2 [1] = molecular target: T1, hCB2 (Homo sapiens, UniProt P34972); experiment: Comparison of efficacy/potency and operational-model bias analysis between hCB2 pathways, reference CP 55,940; type: cell-based
T1 construct: expressed in transfected cells; host or cells: HEK Flp-in

hCB1 = molecular target: T2, hCB1 (Homo sapiens, UniProt P21554); experiment: Radioligand competition binding screen with [3H]-CP 55,940 on hCB1-expressing HEK membranes; settings: 10 μM compound; displacement of 0.75 nM [3H]-CP 55,940
T2 construct: expressed in transfected cells; host or cells: HEK (membranes)

hCB2 [2] = molecular target: T1, hCB2; experiment: Radioligand competition binding with [3H]-CP 55,940 on hCB2-expressing HEK membranes; settings: for hCB2 displacement of [3H]-CP 55,940 in 10 μM screen (in words): 10 μM heterologous competition screen, cut-off 60%; for inhibition at 10 µM: 1 h, read-out: CB2 binding extent at 10 μM (%) (±SEM)
HEK Flp-in wt cells = experiment: CAMYEL cAMP assay in HEK Flp-in wt cells (non-hCB2-mediated effects); type: cell-based, human; settings: HEK Flp-in wt
hCB2 [3] = molecular target: T1, hCB2; experiment: hCB2 internalisation assay (immunocytochemistry of surface receptor), HEK Flp-in hCB2 cells; type: cell-based; set-up: Emax: dose or concentration left out as unconfirmed
hCB2 [4] = molecular target: T1, hCB2; experiment: pERK AlphaLISA assay, HEK Flp-in hCB2 cells; type: cell-based
hCB2 [5] = molecular target: T1, hCB2; experiment: Real-time CAMYEL BRET cAMP assay, forskolin-stimulated HEK Flp-in hCB2 cells; type: cell-based
Experimental: Cellular cAMP levels were measured using a real-time BRET biosensor (CAMYEL) as previously described ([Cawston et al., 2013]). In brief, cells were seeded in 10 cm dishes one day prior to transfection. The medium was then replaced and cells transfected with 5 μg of pcDNA3L-His-CAMYEL (ATCC, Manassas, VA, United States) using linear PEI (MW 25 kDa; Polysciences, Warrington, PA, United States) with a DNA:PEI ratio of 1:6. Approximately 24 h after transfection, cells were trypsinised and re-plated in poly-D-lysine treated white 96-well plates (Corning), at a density of 5–6 × 10^4 cells per well. For experiments involving pertussis toxin (PTX; Sigma-Aldrich) pre-treatment, cells were seeded in half the usual volume of medium, and then ∼5 h later, 2× concentrated PTX or vehicle (50% glycerol, […] Tris–HCl pH 7.5, 10 mM glycine, 500 mM NaCl) were prepared in medium and added to the existing plating medium (giving rise to a final PTX concentration of 100 ng mL^-1). Approximately 24 h after plating (or 16–20 h after applying PTX/vehicle in experiments involving PTX treatment), cells were washed once with Hank’s Balanced Salt Solution (HBSS, Thermo Fisher Scientific, catalogue #14025-134), and then equilibrated for 30 min in HBSS supplemented with 1 mg mL^-1 BSA. Coelenterazine h (final concentration 5 μM; NanoLight Technologies, Pinetop, AZ, United States) was added to each well and incubated for 5 min. Forskolin was added (final concentration 5 μM) and incubated for 6 min (allowing enough time for the induced cAMP increase to plateau), prior to vehicle/drug addition. All drugs and reagents were prepared in HBSS supplemented with 1 mg mL^-1 BSA. SR 144528 was a generous gift from Roche (Basel, Switzerland).
Assays were carried out in technical duplicate. Emissions were detected at 460 nm (Rluc) and 535 nm (YFP) with either a LUMIstar® Omega luminometer (BMG Labtech, Ortenberg, Germany) or CLARIOstar® (BMG Labtech). BRET ratios (535 nm emissions/460 nm emissions, where an increase in ratio corresponds to a decrease in cAMP) were normalised to pre-forskolin reads (i.e., with coelenterazine h present) to remove any variability present prior to addition of forskolin and drug/vehicle. A Lowess curve (GraphPad Prism) was fitted to individual technical replicates within an assay so that cAMP signalling data could be extrapolated from any time point as opposed to only those that were empirically measured (typically every 30–60 s). Data were normalised to matched vehicle (0%) and forskolin (100%) treatments, allowing compilation of data from independent experiments.

[6] = 10^ΔΔlogR, relative to CP 55,940
[7] = relative to reference ligand CP 55,940
[8] = 10 μM compound, displacement of 0.5 nM [3H]-CP 55,940
[9] = operational model transduction ratio

T1 sequence (P34972 whole entry): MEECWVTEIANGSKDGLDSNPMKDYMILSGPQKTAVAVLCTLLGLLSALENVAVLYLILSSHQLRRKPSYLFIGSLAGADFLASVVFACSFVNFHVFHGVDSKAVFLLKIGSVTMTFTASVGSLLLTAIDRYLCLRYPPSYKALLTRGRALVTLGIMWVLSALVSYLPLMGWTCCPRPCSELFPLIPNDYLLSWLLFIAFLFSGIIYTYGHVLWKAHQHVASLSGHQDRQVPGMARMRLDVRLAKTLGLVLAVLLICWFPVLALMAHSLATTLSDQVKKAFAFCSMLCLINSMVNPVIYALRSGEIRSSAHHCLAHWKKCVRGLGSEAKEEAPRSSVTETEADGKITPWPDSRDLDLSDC
T2 sequence (P21554 whole entry): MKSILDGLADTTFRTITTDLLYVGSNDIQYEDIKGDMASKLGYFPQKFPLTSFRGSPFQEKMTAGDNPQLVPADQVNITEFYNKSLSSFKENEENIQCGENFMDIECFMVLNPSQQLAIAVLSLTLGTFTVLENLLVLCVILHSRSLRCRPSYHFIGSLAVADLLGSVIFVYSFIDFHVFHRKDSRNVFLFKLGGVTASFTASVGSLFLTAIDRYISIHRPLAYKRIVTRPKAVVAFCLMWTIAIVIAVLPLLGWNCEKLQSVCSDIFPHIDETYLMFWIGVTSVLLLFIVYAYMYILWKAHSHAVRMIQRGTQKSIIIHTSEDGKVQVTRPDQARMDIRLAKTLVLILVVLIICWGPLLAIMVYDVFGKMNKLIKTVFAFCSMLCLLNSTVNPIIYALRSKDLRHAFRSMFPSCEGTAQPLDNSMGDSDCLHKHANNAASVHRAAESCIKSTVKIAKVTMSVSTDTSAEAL

SMILES: CCCCCCC(C)(C)c1ccc([C@@H]2C[C@H](O)CC[C@H]2CCCO)c(O)c1 [CP 55,940, reference compound]
- Internalisation – pERK Bias factor (hCB2 [1]; [6]): 1.0
- cAMP – internalisation Bias factor (hCB2 [1]; [6]): 1.0
- cAMP – pERK Bias factor (hCB2 [1]; [6]): 1.0
- Internalisation – pERK ΔΔlogR (±SEM) (hCB2 [1]; [7]): –0.02 (0.11)
- cAMP – internalisation ΔΔlogR (±SEM) (hCB2 [1]; [7]): 0.01 (0.10)
- cAMP – pERK ΔΔlogR (±SEM) (hCB2 [1]; [7]): 0.00 (0.04)
- CB1 binding extent at 10 μM (%) (±SEM) (hCB1): 100.0 (0.0) %
- CB2 binding extent at 10 μM (%) (±SEM) (hCB2 [2]; [8]): 100.0 (0.0) %
- Non-hCB2-mediated effects on cAMP (in words) (HEK Flp-in wt cells): least pronounced non-hCB2 signalling profile
- Starting surface hCB2 internalised (hCB2 [3]; 1 h stimulation): ~66%
- logR [log(τ/KA)] (±SEM) Internalisation (hCB2 [3]; [9]): 8.76 (0.1)
- Emax (hCB2 [3]; read-out: Internalisation (1 h) Emax (±SEM)): -65.1%
- pERK potency lower than that for cAMP (hCB2 [4]): approximately 0.5 log unit
- pERK potency lower than affinity (hCB2 [4]; EC50 versus Kd): ~10 fold
- logR [log(τ/KA)] (±SEM) pERK (hCB2 [4]; [9]): 8.05 (0.03)
- Time of maximal pERK response (hCB2 [4]; time course experiment): 4 min
- logR [log(τ/KA)] (±SEM) cAMP (hCB2 [5]; [9]): 8.52 (0.02)
- cAMP potency lower than binding affinity (hCB2 [5]; pEC50 versus pKd): ~0.4 log units
- Emax (hCB2 [5]; read-out: cAMP (5 min) Emax (±SEM)): -41.7%

SMILES: CCOc1nc(Cl)nc(NC2CCCC2)n1 [Compound 1, 4-Chloro-N-cyclopentyl-6-ethoxy-1,3,5-triazin-2-amine]
- hCB2 displacement of [3H]-CP 55,940 in 10 μM screen (in words) (hCB2 [2]): failed to displace, or barely displaced
- inhibition at 10 µM (hCB2 [2]; [8]): -8.1%

SMILES: CCOc1nc(NC2CCCC2)nc(N2CCNCC2)n1 [Compound 2, N-cyclopentyl-4-ethoxy-6-(piperazin-1-yl)-1,3,5-triazin-2-amine]
- hCB2 displacement of [3H]-CP 55,940 in 10 μM screen (in words) (hCB2 [2]): failed to displace, or barely displaced
- inhibition at 10 µM (hCB2 [2]; [8]): 5.8%

SMILES: CCOc1nc(NC2CCCC2)nc(N2CCN(CCCCCCN)CC2)n1 [Compound 5, 4-(4-(6-Aminohexyl)Piperazin-1-yl)-N-Cyclopentyl-6-Ethoxy-1,3,5-Triazin-2-Amine]
- hCB2 displacement of [3H]-CP 55,940 in 10 μM screen (in words) (hCB2 [2]): failed to displace, or barely displaced
- inhibition at 10 µM (hCB2 [2]; [8]): 16.6%

SMILES: CCOc1nc(NC2CCCC2)nc(N2CCN(CCOCCOCCN)CC2)n1 [Compound 6, 4-(4-(2-(2-(2-Aminoethoxy)Ethoxy)Ethyl)Piperazin-1-yl)-N-Cyclopentyl-6-Ethoxy-1,3,5-Triazin-2-Amine]
- hCB2 displacement of [3H]-CP 55,940 in 10 μM screen (in words) (hCB2 [2]): failed to displace, or barely displaced
- inhibition at 10 µM (hCB2 [2]; [8]): 15.6%
